Experimental data from the Deep4Chem optical property database.
Blank lines part the entries; values can stand above or below the compound they belong to.

Experiment: solvent given as SMILES

SMILES: COC(=O)c1ccc(C#Cc2ccc(N(C)C)cc2)cc1
absorption maximum (in C1CCCCC1): 359.51 nm
absorption maximum (in C1CCOC1): 361.89 nm
absorption maximum (in C1COCCO1): 360.5 nm
absorption maximum (in CC1CCCO1): 354.5 nm
absorption maximum (in CC#N): 360.5 nm
absorption maximum (in CC(C)=O): 362 nm
absorption maximum (in CC(C)CC(C)(C)C): 364.5 nm
absorption maximum (in CC(C)O): 360.5 nm
absorption maximum (in CCCCCCCCCCCCCCCC): 365.5 nm
absorption maximum (in CCCCCCCCCCCCCCCCCl): 370.49 nm
absorption maximum (in CCOC(C)=O): 357 nm
absorption maximum (in CCOCC): 354.5 nm
absorption maximum (in CN(C)C=O): 367.5 nm
absorption maximum (in CO): 359 nm
absorption maximum (in CS(C)=O): 370 nm
absorption maximum (in Cc1ccccc1): 369.49 nm

SMILES: COc1ccc(-c2cc(-c3ccc(C)cc3)c(C#N)c(OC)n2)cc1
absorption maximum (in C1CCOC1): 339 nm
absorption maximum (in CC#N): 338 nm
absorption maximum (in CC(C)=O): 340 nm
absorption maximum (in CCCCCC): 334 nm
absorption maximum (in CCOC(C)=O): 335 nm
absorption maximum (in CN(C)C=O): 343 nm
absorption maximum (in CO): 338 nm
absorption maximum (in CS(C)=O): 344 nm
absorption maximum (in ClC(Cl)Cl): 341 nm

absorption maximum (in ClC(Cl)Cl): 360 nm
SMILES: CC(=C(C#Cc1ccccc1)C#Cc1ccccc1)c1ccc(C(C)=C(C#Cc2ccccc2)C#Cc2ccccc2)cc1

SMILES: CCn1c2ccccc2c2cc(/C=C3\C(=O)c4ccccc4S3(=O)=O)ccc21
absorption maximum (in C1CCOC1): 446 nm
absorption maximum (in C1COCCO1): 443 nm
absorption maximum (in CC#N): 442 nm
absorption maximum (in CC(C)=O): 442 nm
absorption maximum (in CCOC(C)=O): 441 nm
absorption maximum (in CN(C)C=O): 449 nm
absorption maximum (in CO): 446 nm
absorption maximum (in CS(C)=O): 454 nm
absorption maximum (in Cc1ccccc1): 453 nm
absorption maximum (in ClC(Cl)Cl): 454 nm
absorption maximum (in ClCCl): 448 nm

SMILES: CC(C)[Si]1(C(C)C)c2cc(C#N)ccc2-c2ccc(N(c3ccccc3)c3ccccc3)cc21
absorption maximum (in C1CCCCC1): 391 nm
absorption maximum (in CC#N): 381 nm
absorption maximum (in CCO): 385 nm
absorption maximum (in CCOCC): 383 nm
absorption maximum (in CS(C)=O): 387 nm
absorption maximum (in ClCCl): 388 nm
absorption maximum (in c1ccccc1): 389 nm

absorption maximum (in ClC(Cl)Cl): 260 nm
SMILES: c1cc2cc(c1)c1ccc3c(c1)c1cc(ccc1[C@]14OCCO[C@]31OCCO4)c1ccc3c(c1)c1cc(ccc1[C@]14OCCO[C@]31OCCO4)c1cccc2c1

absorption maximum (in ClC(Cl)Cl): 437 nm
SMILES: Cc1ccc(C2=Cc3c4ccccc4c4ccccc4[n+]3[B-](F)(F)O2)cc1

absorption maximum (in CS(C)=O): 361 nm
SMILES: COc1ccc(C2C3=C(CCCC3=O)Nc3c2c(=O)oc2ccccc32)cc1 (stereo unspecified)

absorption maximum (in ClCCl): 350 nm
SMILES: CC(=O)c1ccc(-c2cc3c(ccc4sccc43)s2)cc1

absorption maximum (in ClCCl): 323 nm
SMILES: CCOC(=O)c1c(-c2cc3ccccc3oc2=O)nn(-c2ccc(Cl)cc2)c1C(=O)OCC

SMILES: N#C/C(=C\c1ccc(C#N)cc1)c1nc(-c2ccccc2)cs1
absorption maximum (in CC#N): 370 nm
absorption maximum (in CCO): 375 nm
absorption maximum (in CN(C)C=O): 376 nm
absorption maximum (in Cc1ccccc1): 380 nm
absorption maximum (in ClCCl): 375 nm

absorption maximum (in CC#N): 316 nm
absorption maximum (in CO): 314 nm
absorption maximum (in O): 312 nm
SMILES: CSc1ccc2c(c1)N(CCCN1CCN(C)CN1C)c1ccccc1S2

absorption maximum (in ClCCl): 436 nm
SMILES: COC(=O)c1[nH]c(-c2ccc([N+](=O)[O-])cc2)c2nnc3ccc(OC)cc3c12

absorption maximum (in ClC(Cl)Cl): 353 nm
SMILES: CC(=O)OCCN1C(=O)c2cccc3c(Oc4ccc(C=O)cc4)ccc(c23)C1=O

absorption maximum (in ClCCl): 630 nm
SMILES: COCCOCCOCN1C(=O)c2ccc3c(-c4ccccc4)c4c5ccc6c7c(ccc(c(-c8ccccc8)c4c4ccc(c2c34)C1=O)c75)C(=O)N(COCCOCCOC)C6=O

SMILES: Oc1ccc2ncccc2c1
absorption maximum (in CC#N): 331 nm
absorption maximum (in CCCC#N): 333 nm
absorption maximum (in CO): 331 nm
absorption maximum (in Cc1ccccc1): 332 nm
absorption maximum (in ClCCl): 330 nm

absorption maximum (in ClC(Cl)Cl): 305 nm
SMILES: CCCCc1ccc(-n2c3c4cc(F)ccc4nc(-c4ccc(OC)cc4)c3c3c2c2c(-c4ccc(OC)cc4)nc4ccc(F)cc4c2n3-c2ccc(CCCC)cc2)cc1

SMILES: CC1CC=C(c2ccc(-c3ccc(C#N)s3)s2)CC1 (stereo unspecified)
absorption maximum (in C1CCOC1): 357 nm
absorption maximum (in CC#N): 355 nm
absorption maximum (in CCCCCC): 356 nm
absorption maximum (in CCO): 358 nm
absorption maximum (in OCCOCCO): 366 nm
absorption maximum (in c1ccncc1): 363 nm

absorption maximum (in ClCCl): 364 nm
SMILES: Cc1cc(-c2nc3c4ccccc4c4ccccc4c3n2-c2ccc(C(C)(C)C)cc2)ccc1-c1ccc(-c2c(-c3ccccc3)nc3ccccn23)cc1

absorption maximum (in ClCCl): 366 nm
SMILES: C(S/C=C/c1ccc(/C=C/SC=C(c2ccccc2)c2ccccc2)cc1)=C(c1ccccc1)c1ccccc1

absorption maximum (in ClCCl): 385 nm
SMILES: Cc1cccc(-c2c3ccccc3cc3ccccc23)n1

absorption maximum (in C1CCOC1): 405 nm
SMILES: CCN(CC)c1ccc(-c2nc3c(nc2-c2ccc(B(c4c(C)cc(C)cc4C)c4c(C)cc(C)cc4C)cc2)c2ccccc2n3C)cc1

absorption maximum (in CC#N): 355 nm
SMILES: COC(=O)c1c(NC(C)(C)C)oc(-c2ccc(-c3ccccc3)cc2)c1C(=O)OC

absorption maximum (in ClCCl): 398 nm
SMILES: F[B-]1(F)OC(/C=C/c2ccccc2)=CC(c2ccccc2)=[O+]1

absorption maximum (in CC#N): 693 nm
SMILES: CC1=[N+]2C(=C(C3=CC4OCCOCCOCCOCCOC4C=C3)c3c4ccccc4c(/C=C/c4ccc(N(C)C)cc4)n3[B-]2(F)F)c2ccccc21 (stereo unspecified)

absorption maximum (in ClCCl): 390 nm
SMILES: C[Si]1(C)c2ccc(-c3ccc(N(c4ccccc4)c4ccccc4)cc3)cc2C=Cc2cc(-c3ccc(N(c4ccccc4)c4ccccc4)cc3)ccc21

absorption maximum (in C1CCCCC1): 375 nm
absorption maximum (in CC#N): 375 nm
absorption maximum (in CO): 366 nm
absorption maximum (in ClCCl): 382 nm
absorption maximum (in O): 375 nm
SMILES: c1ccc(-c2nc(-c3c4ccccc4cc4ccccc34)n3ccccc23)cc1

absorption maximum (in ClC(Cl)Cl): 347 nm
SMILES: CC(C)(C)c1ccc2oc3nc4oc5ccc(N6c7ccccc7Oc7ccccc76)cc5c4cc3c2c1

absorption maximum (in ClCCl): 435 nm
SMILES: CCCCN(CCCC)c1ccc(C#Cc2cc(C#Cc3ccc(N(CCCC)CCCC)cc3)c(C#Cc3ccc(C#N)cc3)cc2C#Cc2ccc(C#N)cc2)cc1

SMILES: c1ccc(-c2nnc(-c3cc(-c4nnc(-c5ccccc5)o4)c(-n4c5ccccc5c5ccccc54)cc3-n3c4ccccc4c4ccccc43)o2)cc1
absorption maximum (in Cc1ccccc1): 370 nm

absorption maximum (in C1CCCCC1): 362 nm
SMILES: CCCC1(CCC)c2cc(-c3ccc(C(C)(C)C)cc3)ccc2-c2ccc(-c3ccc4c(c3)C(CCC)(CCC)c3cc(-c5ccc6c(c5)C(CCC)(CCC)c5cc(-c7ccc(C(C)(C)C)cc7)ccc5-6)ccc3-4)cc21

absorption maximum (in c1ccccc1): 436 nm
SMILES: CN(C)c1ccc2nc(-c3ccccc3)c(=O)oc2c1

absorption maximum (in CC#N): 295 nm
SMILES: COc1ccc(-c2nc3c([nH]2)=C2C=C(Cl)S[C@@]2(C)[C@]2(C)SC(Cl)=CC=32)cc1

absorption maximum (in CCO): 388 nm
absorption maximum (in ClC(Cl)Cl): 392 nm
SMILES: CCOc1ccc2c(-c3nc(-c4ccccc4)no3)cc(=O)oc2c1

absorption maximum (in CC#N): 403 nm
absorption maximum (in ClCCCl): 420 nm
SMILES: c1ccc(-c2cc(-c3ccccc3)[o+]c(-c3ccccc3)c2)cc1

SMILES: COc1ccc2c(CC(=O)NN)coc2c1
absorption maximum (in C1CCOC1): 290 nm
absorption maximum (in CC#N): 290 nm
absorption maximum (in CC(C)=O): 298 nm
absorption maximum (in CCCCO): 278 nm
absorption maximum (in CCCO): 289 nm
absorption maximum (in CCO): 291 nm
absorption maximum (in CCOC(C)=O): 300 nm
absorption maximum (in CN(C)C=O): 288 nm
absorption maximum (in CO): 290 nm
absorption maximum (in ClCCl): 287 nm

absorption maximum (in C1CCOC1): 312 nm
SMILES: O=C(c1ccc(N2c3ccccc3Oc3ccccc32)cc1)c1ccc2sc3ccccc3c2c1

absorption maximum (in C1CCOC1): 353 nm
absorption maximum (in C1COCCO1): 353 nm
absorption maximum (in CC#N): 352 nm
absorption maximum (in CC(C)O): 352 nm
absorption maximum (in CCO): 352 nm
absorption maximum (in CCOC(C)=O): 352 nm
absorption maximum (in CN(C)C=O): 355 nm
absorption maximum (in CO): 351 nm
absorption maximum (in CS(C)=O): 358 nm
absorption maximum (in O): 354 nm
SMILES: NS(=O)(=O)c1ccc(N2N=C(c3ccc(O)cc3)CC2c2ccc([N+](=O)[O-])cc2)cc1 (stereo unspecified)

absorption maximum (in CC#N): 370 nm
absorption maximum (in CCCCCC): 352 nm
SMILES: C1CCN2CCCn3c2c(c2c3=NCCN=2)C1

absorption maximum (in C1CCCCC1): 324 nm
absorption maximum (in CC#N): 323 nm
absorption maximum (in CCO): 323 nm
absorption maximum (in ClCCl): 325 nm
SMILES: [BH3-][P+]1(c2ccccc2)c2ccccc2-c2sc3ccccc3c21 (stereo unspecified)

SMILES: CCC1=C(C)C2=Cc3cc(I)c(I)n3[B-](F)(F)[N+]2=C1C
absorption maximum (in C1CCCCC1): 542 nm
absorption maximum (in CC(C)=O): 524.5 nm
absorption maximum (in CCO): 529 nm
absorption maximum (in CCOC(C)=O): 528 nm
absorption maximum (in CO): 526.5 nm
absorption maximum (in OCC(F)(F)F): 520 nm

absorption maximum (in CO): 500 nm
SMILES: CCN(CC)c1ccc(C2=C3C(C)=CC(C)=[N+]3[B-](F)(F)n3c(C)cc(C)c32)cc1

SMILES: N#CC(C#N)=C(/C=C/c1cn(-c2ccccc2)nc1-c1ccccc1)c1ccccc1
absorption maximum (in C1CCOC1): 402 nm
absorption maximum (in C1COCCO1): 399 nm
absorption maximum (in CCO): 402 nm
absorption maximum (in CCOC(C)=O): 399 nm
absorption maximum (in CN(C)C=O): 405 nm
absorption maximum (in CO): 397 nm
absorption maximum (in CS(C)=O): 409 nm
absorption maximum (in Cc1ccccc1): 405 nm
absorption maximum (in ClC(Cl)Cl): 406 nm
absorption maximum (in ClCCl): 403 nm

absorption maximum (in C1COCCO1): 444 nm
absorption maximum (in CC#N): 442 nm
absorption maximum (in CCCCOCCCC): 443 nm
absorption maximum (in CCOC(C)=O): 442 nm
SMILES: Clc1nc(Nc2ccccc2)nc(Nc2ccc3c4cccc5cccc(c6cccc2c63)c54)n1

absorption maximum (in CCO): 369 nm
SMILES: CCOC(=O)c1cc(C(=O)OCC)c2cccc(O)c2n1

absorption maximum (in CC#N): 360 nm
SMILES: COc1ccc(-c2csc(/C(C#N)=C/c3c(Cl)cccc3Cl)n2)cc1

SMILES: Cc1ccc(N2C(c3ccccc3N)=NC(c3ccccc3)C2c2ccccc2)cc1 (stereo unspecified)
absorption maximum (in Cc1ccccc1): 282 nm

absorption maximum (in CC#N): 393 nm
absorption maximum (in CO): 395 nm
absorption maximum (in ClCCl): 399 nm
SMILES: Cc1cc(O)c(-c2[nH]c(=O)n3c2-c2ccccc2C3=O)cc1Cl

absorption maximum (in C1CCOC1): 348.89 nm
SMILES: COC(=O)C1(C(=O)OC)Cc2c(C#Cc3ccc(OC)cc3)c(-c3ccc(OC)cc3)c3c(-c4ccccc4)c(-c4ccccc4)c(-c4ccccc4)c(-c4ccccc4)c3c2C1

absorption maximum (in ClC(Cl)Cl): 380 nm
SMILES: O=C1[C@@H]2[C@H](C(=O)N1c1ccc3cc4ccccc4cc3c1)[C@@H]1C=C[C@H]2C1
